Experimental data as given in patent US12410164B2, “Heterocyclic compounds and medical use thereof” (FONDAZIONE TELETHON, priority 2018, dated 2025).

Molecular target: F508del-CFTR (Homo sapiens, UniProt P13569, DEL508-508)
Test: HS-YFP kinetic fluorescence (iodide quenching rate) assay in CFBE41o− cells
Format: cell-based
Design: expressed in transfected cells; host or cells: CFBE41o- cells with expression of F508del-CFTR and HS-YFP (generated as in Sondo et al. 2011)
Conditions: for AI (%) additivity index / AI additivity index: compound at 10 μM plus VX-809; for structure-activity comparison of corrector potency/activity: relative to the analogue; for AI additivity index: Table 2
Procedure: CFBE41o- cells, with expression of F508del-CFTR and halogen-sensitive fluorescent protein, were generated as previously described (Sondo E, et al. Am J Physiol. 2011, 301, […]-[…]). For the test, the cells were seeded in 96-well microplates using a culture medium consisting of DMEM and Ham's F12 (1:1) supplemented with 10% foetal bovine serum. After 24 hours from seeding, the cells were treated for another 24 hours with the test compounds dissolved in the culture medium at the desired concentrations. As a negative control, the solvent of the compounds (dimethyl sulfoxide, DMSO) dissolved in the medium with the same dilution ratio (final percentage of DMSO:0.1-0.2%) was used. As a positive control, the corrector VX-809 (Selleck Chemicals, […]) was used at a concentration of 1 μM. After treatment, the medium with the compounds was removed and the cells were stimulated with forskolin (Sigma-Aldrich, F6886) 20 μM plus genistein (Sigma-Aldrich, G6649) 50 μM (in 60 μl of PBS saline) to maximally activate the CFTR channels present in the membrane. In a microplate reader (FLUOstar-Omega, BMG) the fluorescence of the cells in each well was read for 14 seconds, with an injection of 165 μl of a iodide-enriched saline (modified PBS where NaCl, 137 mM, has been replaced with the same concentration of NaI). The iodide transport activity in each well was evaluated by subtraction of the background fluorescence (measured in a well without cells), subsequent normalization with respect to the initial fluorescence and finally by interpolation of the fluorescence quenching phase with an exponential function that allows the derivation of the maximum slope (quenching rate, QR). The activity of the synthesized compounds was initially evaluated on the CFBE41o- cell line with expression of the mutated F508del-CFTR protein described above (Sondo E, et al. Am J Physiol. 2011, 301, […]-[…]). For this purpose, a functional assay based on the fluorescent YFP protein sensitive to halides, HS-YFP, was used (Galietta L J, et al. J Biol Chem. 2001, 276, 19723-19728). The fluorescence of the HS-YFP protein is turned off by iodide. Therefore, if exposed to a solution containing iodide, cells with HS-YFP expression show a quenching speed of the fluorescence which depends on the presence and activity of anionic channels. Under control conditions, the mutated CFTR protein presents a serious defect of stability and maturation, so it remains trapped in the endoplasmic reticulum not reaching the cell surface in enough quantity. In the HS-YFP-based assay, this defect results in a low anion transport capacity and therefore in a low quenching rate (QR). Treatment for a prolonged time (e.g. 24 hours) with a corrector determines an improvement in protein maturation with an increase in the number of CFTR channels present in the membrane and therefore an increase in the flux of iodide and QR. In a first phase, the authors screened about 200 heterocyclic molecules with various nitrogenated tricyclic scaffolds. Conditions previously described have been used for screening (Sondo E, et al. Am J Physiol. 2011, 301, […]-[…]) and reported herein in the Materials and Methods section. A threshold equal to the average value plus three times the standard deviation of the QR of wells without compounds (only DMSO in the culture medium) was used as a criterion for the selection of active compounds.

[1] = Table 1, (QRTOT − QRVX)/QRVX, HS-YFP assay

F508del-CFTR, sequence (P13569 with tags, fused parts or gaps DEL508-508): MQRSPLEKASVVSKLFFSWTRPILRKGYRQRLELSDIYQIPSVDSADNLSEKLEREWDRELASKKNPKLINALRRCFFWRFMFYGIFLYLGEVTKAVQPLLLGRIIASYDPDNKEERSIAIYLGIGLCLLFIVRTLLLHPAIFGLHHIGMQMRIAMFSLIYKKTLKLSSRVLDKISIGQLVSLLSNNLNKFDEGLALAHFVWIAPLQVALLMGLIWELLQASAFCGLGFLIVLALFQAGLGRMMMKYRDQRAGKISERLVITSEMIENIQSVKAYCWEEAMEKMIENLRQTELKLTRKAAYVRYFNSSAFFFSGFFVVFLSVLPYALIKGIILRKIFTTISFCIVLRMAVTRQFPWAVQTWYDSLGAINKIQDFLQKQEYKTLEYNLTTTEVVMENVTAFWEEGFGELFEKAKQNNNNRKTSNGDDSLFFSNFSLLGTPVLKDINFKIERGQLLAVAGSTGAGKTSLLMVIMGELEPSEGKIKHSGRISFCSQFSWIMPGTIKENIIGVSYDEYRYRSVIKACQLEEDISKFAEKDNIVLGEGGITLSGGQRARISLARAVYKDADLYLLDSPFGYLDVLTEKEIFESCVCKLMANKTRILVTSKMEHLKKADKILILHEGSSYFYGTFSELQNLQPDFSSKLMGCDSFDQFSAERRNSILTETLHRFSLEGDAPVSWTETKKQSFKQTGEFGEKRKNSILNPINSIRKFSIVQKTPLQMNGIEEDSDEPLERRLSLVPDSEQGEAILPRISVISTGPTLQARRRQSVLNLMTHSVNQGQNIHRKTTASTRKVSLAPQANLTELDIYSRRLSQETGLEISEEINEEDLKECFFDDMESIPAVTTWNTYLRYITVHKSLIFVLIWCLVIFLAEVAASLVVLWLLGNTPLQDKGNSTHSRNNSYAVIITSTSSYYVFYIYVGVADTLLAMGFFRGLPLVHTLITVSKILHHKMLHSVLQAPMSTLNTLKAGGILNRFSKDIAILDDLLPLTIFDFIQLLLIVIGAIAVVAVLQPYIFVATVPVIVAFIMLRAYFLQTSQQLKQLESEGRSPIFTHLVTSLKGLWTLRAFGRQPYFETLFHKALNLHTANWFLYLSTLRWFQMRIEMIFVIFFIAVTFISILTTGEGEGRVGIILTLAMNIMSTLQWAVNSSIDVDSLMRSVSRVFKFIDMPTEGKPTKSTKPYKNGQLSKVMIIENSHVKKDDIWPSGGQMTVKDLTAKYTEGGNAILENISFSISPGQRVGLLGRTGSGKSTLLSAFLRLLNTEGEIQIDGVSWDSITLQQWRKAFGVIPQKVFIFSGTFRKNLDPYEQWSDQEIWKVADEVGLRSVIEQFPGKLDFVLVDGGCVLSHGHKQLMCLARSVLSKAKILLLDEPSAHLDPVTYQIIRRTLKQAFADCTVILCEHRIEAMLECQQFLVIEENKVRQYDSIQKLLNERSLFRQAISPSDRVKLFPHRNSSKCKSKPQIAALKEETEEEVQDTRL

`CCOC(=O)c1c2c(nn1Cc1ccc(C)c(C)c1)-c1[nH]c(=O)c(S(=O)(=O)c3ccccc3)cc1CC2` [PZ8, Ethyl 7-(benzenesulfonyl)-2-[(3,4-dimethylphenyl)methyl]-8-oxo-4,5,8,9-tetrahydro-2H-pyrazolo[4,3-h]quinoline-3-carboxylate] was tested. Which “AI (%) additivity index” value (Table 6, (QRTOT-QRVX)/QRVX) did it give?
The value was 21%.

Which “AI (%) additivity index” value [1] does the source give for `CCOC(=O)c1cc2c(n1Cc1ccccc1C)-c1[nH]c(=O)c(S(=O)(=O)c3ccccc3)cc1CC2` [PP015, Ethyl 1-(2-methylbenzyl)-8-oxo-7-(phenylsulfonyl)-4,5,8,9-tetrahydro-1H-pyrrolo[3,2-h]quinoline-2-carboxylate] here?
The value was 124%.

What does the source list for `CCOC(=O)c1cc2c(n1Cc1ccc(C)cc1)-c1[nH]c(=O)c(S(=O)(=O)c3ccccc3)cc1CC2` [PP007]?
AI additivity index in the example of FIG. 1 (10 μM, with VX-809 1 μM, 24 h): 74%; AI (%) additivity index [1]: 169%; F508del-CFTR activity (quenching rate) versus DMSO control (compound alone, 24 h treatment): significant increase in F508del-CFTR activity; F508del-CFTR activity (quenching rate) of combination with VX-809 (compound plus VX-809 1 μM, 24 h): greater than the sum of the single effects; screening outcome (QR above mean plus three SD of DMSO wells) (screen of about 200 heterocyclic molecules): active

With `CCOC(=O)c1cc2c(n1Cc1ccc(F)cc1)-c1[nH]c(=O)c(S(=O)(=O)c3ccccc3)cc1CC2` [PP072, Ethyl 7-(benzenesulfonyl)-1-[(4-fluorophenyl)methyl]-8-oxo-4,5,8,9-tetrahydro-1H-pyrrolo[3,2-h]quinoline-2-carboxylate] as the molecule, how does the “AI (%) additivity index” value [1] read?
The value was 420%.

`Cc1cccc(Cn2c(C(=O)NS(=O)(=O)c3ccccc3)c(Br)c3c2-c2[nH]c(=O)c(S(=O)(=O)c4ccccc4)cc2CC3)c1` [PP100, N,7-di(benzenesulfonyl)-3-bromo-1-[(3-methylphenyl)methyl]-8-oxo-4,5,8,9-tetrahydro-1H-pyrrolo[3,2-h]quinoline-2-carboxamide] was tested. Which “AI (%) additivity index” value [1] did it give?
The value was 47%.

With `Cc1cc(=O)oc2c1cc(C)c1occ(C)c12` [TMA, 4,6,4′-trimethylangelicin, reference compound] as the molecule, how does the “corrective activity of TMA” value (50-500 nM, 1 and 10 μM, with and without VX-809 1 μM, FIG. 4) read?
Its value is “ineffective at all concentrations”.

`CC(C)OC(=O)c1ccc2n1CCCc1cc(S(=O)(=O)c3ccccc3)c(=O)[nH]c1-2` [QZN13, Propan-2-yl 3-(benzenesulfonyl)-2-oxo-1,5,6,7-tetrahydro-2H-pyrido[2,3-c]pyrrolo[1,2-a]azepine-9-carboxylate] was tested. Which “AI (%) additivity index” value (Table 4, (QRTOT − QRVX)/QRVX) did it give?
The value was 8%.

`Cc1ccc(Cn2c(C(=O)O)cc3c2-c2[nH]c(=O)c(S(=O)(=O)c4ccccc4)cc2CC3)cc1C` [PP094, 7-(Benzenesulfonyl)-1-[(3,4-dimethylphenyl)methyl]-8-oxo-4,5,8,9-tetrahydro-1H-pyrrolo[3,2-h]quinoline-2-carboxylic acid] was tested. Which “AI (%) additivity index” value [1] did it give?
The value was 47%.

Which “AI (%) additivity index” value [1] does the source give for `Cc1ccc(Cn2c(C(=O)O)cc3c2-c2[nH]c(=O)c(S(=O)(=O)c4ccccc4)cc2CC3)cc1` [PP078, 7-(Benzenesulfonyl)-1-[(4-methylphenyl)methyl]-8-oxo-4,5,8,9-tetrahydro-1H-pyrrolo[3,2-h]quinoline-2-carboxylic acid] here?
The value was 37%.

What does the source list for `CCOC(=O)c1c(Br)c2c(n1Cc1ccc(C)cc1C)-c1[nH]c(=O)c(S(=O)(=O)c3ccccc3)cc1CC2` [PP033, Ethyl 7-(benzenesulfonyl)-3-bromo-1-[(2,4-dimethylphenyl)methyl]-8-oxo-4,5,8,9-tetrahydro-1H-pyrrolo[3,2-h]quinoline-2-carboxylate]?
AI (%) additivity index [1]: 114%; structure-activity comparison of corrector potency/activity: reduction in activity compared to PP008

For `COC(=O)c1c(Br)c2c(n1Cc1ccc(C)cc1)-c1[nH]c(=O)c(S(=O)(=O)c3ccccc3)cc1CC2` [PP031, Methyl 3-bromo-1-(4-methylbenzyl)-8-oxo-7-(phenylsulfonyl)-4,5,8,9-tetrahydro-1H-pyrrolo[3,2-h]quinoline-2-carboxylate], which “AI (%) additivity index” value [1] is on record?
The value was 39%.

For `CC(C)OC(=O)c1cc2c(n1Cc1ccc(F)cc1)-c1[nH]c(=O)c(S(=O)(=O)c3ccccc3)cc1CC2` [PP107, Propan-2-yl 7-(benzenesulfonyl)-1-[(4-fluorophenyl)methyl]-8-oxo-4,5,8,9-tetrahydro-1H-pyrrolo[3,2-h]quinoline-2-carboxylate], which “AI (%) additivity index” value [1] is on record?
The value was 335%.

Which results are given for `CCOC(=O)c1c(Br)c2c(n1Cc1ccc(C)c(C)c1)-c1[nH]c(=O)c(S(=O)(=O)c3ccccc3)cc1CC2` [PP037, Ethyl 7-(benzenesulfonyl)-3-bromo-1-[(3,4-dimethylphenyl)methyl]-8-oxo-4,5,8,9-tetrahydro-1H-pyrrolo[3,2-h]quinoline-2-carboxylate]?
AI (%) additivity index [1]: 335%; structure-activity comparison of corrector potency/activity: increase in potency compared to PP008

What does the source list for `CCOC(=O)c1cc2c(n1C)-c1[nH]c(=O)c(S(=O)(=O)c3ccccc3)cc1CC2` [PP010]?
AI (%) additivity index [1]: 95%; structure-activity comparison of corrector potency/activity: causes a reduction in activity

Which “AI (%) additivity index” value (Table 5, (QRTOT-QRVX)/QRVX) does the source give for `CC(C)OC(=O)c1ccc2n1CCc1cnc(NC3CCCC3)nc1-2` [QZQ20, Propan-2-yl 2-(cyclopentylamino)-5,6-dihydropyrimido[5,4-g]indolizine-8-carboxylate] here?
Its value is 5%.

With `CCOC(=O)c1c(Br)c2c(n1Cc1ccc(C(F)(F)F)cc1)-c1[nH]c(=O)c(S(=O)(=O)c3ccccc3)cc1CC2` [PP071, Ethyl 7-(benzenesulfonyl)-3-bromo-8-oxo-1-{[4-(trifluoromethyl)phenyl]methyl}-4,5,8,9-tetrahydro-1H-pyrrolo[3,2-h]quinoline-2-carboxylate] as the molecule, how does the “AI (%) additivity index” value [1] read?
Its value is 35%.

For `CCOC(=O)c1cc2c(n1Cc1ccc(C)cc1)-c1[nH]c(=O)c(S(=O)(=O)c3ccccc3)cc1CCC2` [PP048, Ethyl 8-(benzenesulfonyl)-1-[(4-methylphenyl)methyl]-9-oxo-1,4,5,6,9,10-hexahydropyrrolo[3′,2′:6,7]cyclohepta[1,2-b]pyridine-2-carboxylate], which AI additivity index ((QRTOT − QRVX)/QRVX) is on record?
Its AI additivity index is 22%.

How did the “AI (%) additivity index” value [1] turn out when `O=C(NC1CC1)c1c(Br)c2c(n1Cc1ccc(Br)cc1)-c1[nH]c(=O)c(S(=O)(=O)c3ccccc3)cc1CC2` [PP099, 7-(Benzenesulfonyl)-3-bromo-1-[(4-bromophenyl)methyl]-N-cyclopropyl-8-oxo-4,5,8,9-tetrahydro-1H-pyrrolo[3,2-h]quinoline-2-carboxamide] was run?
Its value is 82%.

`CCOC(=O)c1cc2c(n1Cc1ccc(C)nc1)-c1[nH]c(=O)c(S(=O)(=O)c3ccccc3)cc1CC2` [PP066, Ethyl 7-(benzenesulfonyl)-1-[(6-methylpyridin-3-yl)methyl]-8-oxo-4,5,8,9-tetrahydro-1H-pyrrolo[3,2-h]quinoline-2-carboxylate] was tested. Which “AI (%) additivity index” value [1] did it give?
The value was 62%.

For `Cc1ccc(Cn2c(C(N)=O)c(Br)c3c2-c2[nH]c(=O)c(S(=O)(=O)c4ccccc4)cc2CC3)cc1` [PP089, 7-(Benzenesulfonyl)-3-bromo-1-[(4-methylphenyl)methyl]-8-oxo-4,5,8,9-tetrahydro-1H-pyrrolo[3,2-h]quinoline-2-carboxamide], which “AI (%) additivity index” value [1] is on record?
The value was 11%.

Which results are given for `CCOC(=O)c1c(Br)c2c(n1Cc1ccc(C)cc1)-c1[nH]c(=O)c(S(=O)(=O)c3ccccc3)cc1CCC2` [PP056, Ethyl 8-(benzenesulfonyl)-3-bromo-1-[(4-methylphenyl)methyl]-9-oxo-1,4,5,6,9,10-hexahydropyrrolo[3′,2′:6,7]cyclohepta[1,2-b]pyridine-2-carboxylate]?
AI additivity index ((QRTOT − QRVX)/QRVX): 60%; structure-activity comparison of corrector potency/activity: more potent than the non-halogenated analogues
